Test results: PubChem BioAssay (NCI)
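Five compound concentrations were applied to cells in 96-well plates for 48 hours; endpoints were derived by simple linear interpolation of the resulting dose-response curve. The concentration for full growth arrest is given as TGI.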

Experiments:
Test in all cases: DTP human tumour cell line panel, 48 h
[1] = test system: 786-0 renal
[2] = test system: A498 renal
[3] = test system: A549 NSCLC
[4] = test system: ACHN renal
[5] = test system: CAKI-1 renal
[6] = test system: CCRF-CEM leukemia
[7] = test system: COLO 205 colon
[8] = test system: DLD-1 colon
[9] = test system: DMS 114 small cell lung
[10] = test system: DMS 273 small cell lung
[11] = test system: EKVX NSCLC
[12] = test system: HCC-2998 colon
[13] = test system: HCT-116 colon
[14] = test system: HCT-15 colon
[15] = test system: HL-60(TB) leukemia
[16] = test system: HOP-18 NSCLC
[17] = test system: HOP-62 NSCLC
[18] = test system: HOP-92 NSCLC
[19] = test system: HT29 colon
[20] = test system: IGROV1 ovarian
[21] = test system: K-562 leukemia
[22] = test system: KM12 colon
[23] = test system: KM20L2 colon
[24] = test system: LOX IMVI melanoma
[25] = test system: LXFL 529 NSCLC
[26] = test system: M14 melanoma
[27] = test system: M19-MEL melanoma
[28] = test system: MALME-3M melanoma
[29] = test system: MOLT-4 leukemia
[30] = test system: NCI-H23 lung
[31] = test system: NCI-H460 lung
[32] = test system: NCI-H522 lung
[33] = test system: OVCAR-3 ovarian
[34] = test system: OVCAR-4 ovarian
[35] = test system: OVCAR-5 ovarian
[36] = test system: OVCAR-8 ovarian
[37] = test system: RPMI-8226 leukemia
[38] = test system: RXF 393 renal
[39] = test system: RXF-631 renal
[40] = test system: SF-268 CNS
[41] = test system: SF-295 CNS
[42] = test system: SF-539 CNS
[43] = test system: SK-MEL-2 melanoma
[44] = test system: SK-MEL-5 melanoma
[45] = test system: SK-OV-3 ovarian
[46] = test system: SN12C renal
[47] = test system: SNB-19 CNS
[48] = test system: SNB-75 CNS
[49] = test system: SNB-78 CNS
[50] = test system: SW-620 colon
[51] = test system: TK-10 renal
[52] = test system: U251 CNS
[53] = test system: UACC-257 melanoma
[54] = test system: UACC-62 melanoma
[55] = test system: UO-31 renal
[56] = test system: XF 498 CNS
[57] = test system: NCI-H226 lung
[58] = test system: SR leukemia

`COC(=O)c1cc2cc(OC)c(OC)cc2cc(C(=O)OC)c1=O` gave a TGI [1] greater than 100 µM, a TGI [2] greater than 100 µM and a TGI [3] greater than 100 µM. For the same molecule, the TGI [4] was greater than 100 µM, the TGI [5] was greater than 100 µM and the TGI [6] was greater than 100 µM. It also gave a TGI [7] greater than 100 µM, a TGI [8] greater than 100 µM and a TGI [9] greater than 100 µM. For the same molecule, the TGI [10] was greater than 100 µM, the TGI [11] was greater than 100 µM and the TGI [12] was greater than 100 µM. For the same molecule, the TGI [13] was greater than 100 µM, the TGI [14] was greater than 100 µM and the TGI [15] was greater than 100 µM. It also gave a TGI [16] greater than 100 µM, a TGI [17] greater than 100 µM and a TGI [18] greater than 100 µM. For the same molecule, the TGI [19] was greater than 100 µM, the TGI [20] was greater than 100 µM and the TGI [21] was greater than 100 µM. The TGI [22] was greater than 100 µM, the TGI [23] was greater than 100 µM and the TGI [24] was greater than 100 µM. For the same molecule, the TGI [25] was greater than 100 µM, the TGI [26] was greater than 100 µM and the TGI [27] was greater than 100 µM. For the same molecule, the TGI [28] was greater than 100 µM, the TGI [29] was greater than 100 µM and the TGI [30] was greater than 100 µM. The TGI [31] was greater than 100 µM, the TGI [32] was greater than 100 µM and the TGI [33] was greater than 100 µM. It also gave a TGI [34] greater than 100 µM, a TGI [35] greater than 100 µM and a TGI [36] greater than 100 µM. It also gave a TGI [37] greater than 100 µM, a TGI [38] greater than 100 µM and a TGI [39] greater than 100 µM. It also gave a TGI [40] greater than 100 µM, a TGI [41] greater than 100 µM and a TGI [42] greater than 100 µM. It also gave a TGI [43] greater than 100 µM, a TGI [44] greater than 100 µM and a TGI [45] greater than 100 µM. For the same molecule, the TGI [46] was greater than 100 µM, the TGI [47] was greater than 100 µM and the TGI [48] was greater than 100 µM. The TGI [49] was greater than 100 µM, the TGI [50] was greater than 100 µM and the TGI [51] was greater than 100 µM. It also gave a TGI [52] greater than 100 µM, a TGI [53] greater than 100 µM and a TGI [54] greater than 100 µM. For the same molecule, the TGI [55] was greater than 100 µM and the TGI [56] was greater than 100 µM.
Work on `Cn1cnc2[nH]c(=O)[nH]c(=S)c21` yielded a TGI [1] greater than 100 µM, a TGI [2] greater than 100 µM and a TGI [3] greater than 100 µM. It also gave a TGI [4] greater than 100 µM, a TGI [5] greater than 100 µM and a TGI [6] greater than 100 µM. The TGI [7] was greater than 100 µM, the TGI [8] was greater than 100 µM and the TGI [9] was greater than 100 µM. For the same molecule, the TGI [10] was greater than 100 µM, the TGI [11] was greater than 100 µM and the TGI [12] was greater than 100 µM. The TGI [13] was greater than 100 µM, the TGI [14] was greater than 100 µM and the TGI [15] was greater than 100 µM. It also gave a TGI [16] greater than 100 µM, a TGI [17] greater than 100 µM and a TGI [18] greater than 100 µM. The TGI [19] was greater than 100 µM, the TGI [20] was greater than 100 µM and the TGI [21] was greater than 100 µM. It also gave a TGI [22] greater than 100 µM, a TGI [23] greater than 100 µM and a TGI [25] greater than 100 µM. The TGI [26] was greater than 100 µM, the TGI [27] was greater than 100 µM and the TGI [28] was greater than 100 µM. For the same molecule, the TGI [29] was greater than 100 µM, the TGI [57] was greater than 100 µM and the TGI [30] was greater than 100 µM. The TGI [31] was greater than 100 µM, the TGI [32] was greater than 100 µM and the TGI [33] was greater than 100 µM. For the same molecule, the TGI [34] was greater than 100 µM, the TGI [35] was greater than 100 µM and the TGI [36] was greater than 100 µM. For the same molecule, the TGI [37] was greater than 100 µM, the TGI [38] was greater than 100 µM and the TGI [39] was greater than 100 µM. For the same molecule, the TGI [40] was greater than 100 µM, the TGI [41] was greater than 100 µM and the TGI [42] was greater than 100 µM. It also gave a TGI [43] greater than 100 µM, a TGI [44] greater than 100 µM and a TGI [45] greater than 100 µM. It also gave a TGI [46] greater than 100 µM, a TGI [47] greater than 100 µM and a TGI [48] greater than 100 µM. For the same molecule, the TGI [49] was greater than 100 µM, the TGI [58] was greater than 100 µM and the TGI [50] was greater than 100 µM. The TGI [51] was greater than 100 µM, the TGI [52] was greater than 100 µM and the TGI [53] was greater than 100 µM. The TGI [54] was greater than 100 µM, the TGI [55] was greater than 100 µM and the TGI [56] was greater than 100 µM.
`COc1ccc(C(=O)Cc2ccc(Cl)cc2)cc1OC` was tested, and the TGI [2] was greater than 100 µM, the TGI [3] was greater than 100 µM and the TGI [4] was greater than 100 µM. It also gave a TGI [5] greater than 100 µM, a TGI [6] greater than 100 µM and a TGI [8] greater than 100 µM. For the same molecule, the TGI [9] was greater than 100 µM, the TGI [10] was greater than 100 µM and the TGI [11] was greater than 100 µM. For the same molecule, the TGI [12] was greater than 100 µM, the TGI [13] was greater than 100 µM and the TGI [14] was greater than 100 µM. It also gave a TGI [15] greater than 100 µM, a TGI [16] greater than 100 µM and a TGI [17] greater than 100 µM. For the same molecule, the TGI [19] was greater than 100 µM, the TGI [20] was greater than 100 µM and the TGI [21] was greater than 100 µM. The TGI [23] was greater than 100 µM, the TGI [24] was greater than 100 µM and the TGI [25] was greater than 100 µM. The TGI [26] was greater than 100 µM, the TGI [27] was greater than 100 µM and the TGI [28] was greater than 100 µM. For the same molecule, the TGI [29] was greater than 100 µM, the TGI [57] was greater than 100 µM and the TGI [30] was greater than 100 µM. It also gave a TGI [31] greater than 100 µM, a TGI [32] greater than 100 µM and a TGI [33] greater than 100 µM. It also gave a TGI [34] greater than 100 µM, a TGI [35] greater than 100 µM and a TGI [36] greater than 100 µM. For the same molecule, the TGI [37] was greater than 100 µM, the TGI [38] was greater than 100 µM and the TGI [39] was greater than 100 µM. For the same molecule, the TGI [40] was greater than 100 µM, the TGI [41] was greater than 100 µM and the TGI [42] was greater than 100 µM. For the same molecule, the TGI [43] was greater than 100 µM, the TGI [44] was greater than 100 µM and the TGI [45] was greater than 100 µM. The TGI [46] was greater than 100 µM, the TGI [47] was greater than 100 µM and the TGI [48] was 86.9 µM. For the same molecule, the TGI [49] was greater than 100 µM, the TGI [58] was greater than 100 µM and the TGI [50] was greater than 100 µM. It also gave a TGI [51] greater than 100 µM, a TGI [52] greater than 100 µM and a TGI [53] greater than 100 µM. It also gave a TGI [54] greater than 100 µM, a TGI [55] greater than 100 µM and a TGI [56] greater than 100 µM.
